Experimental data published in the SangsterLogP compilation.

experiment: method code SF, from Hansch, C. & Leo, A. (1987). Log P database [Dataset]. Pomona College Medicinal Chemistry Project.; conditions: not given

In order of rising logP:
1. O=c1nc[nH]c(=O)[nH]1  -1.87
2. NNc1ncnc2c([C@@H]3O[C@H](CO)[C@@H](O)[C@H]3O)n[nH]c12  -1.42
3. O=NN(CCCl)C(=O)NC1CS(=O)(=O)CS(=O)(=O)C1  -0.94
4. CN(C(=O)CCOS(C)(=O)=O)c1ccc(S(=O)(=O)N(C)C)cc1  -0.68
5. c1nnn[nH]1  -0.6
6. NNC(=O)c1ccncc1  -0.5
7. CC(=O)NCCC(=O)N(C)c1ccc(S(=O)(=O)N(C)C)cc1  -0.35
8. CC(=O)N[C@@H]1CC(=O)N(c2ccccc2)C1=O  -0.33
9. c1ccn2nnnc2c1  -0.09
10. CC(=O)Nc1ccc(C(N)=O)cc1  0.01
11. COc1cccc(C=C(C(N)=O)C(N)=O)c1  0.01
12. CS(=O)(=O)Nc1cccc(NS(C)(=O)=O)c1  0.07
13. NC(=O)C(F)(F)F  0.12
14. Nc1nc(=O)c2ccccc2o1  0.27
15. C#CC(C)(C)O  0.28
16. Cn1ccc(=O)c2ccccc21  0.44
17. NC(=O)NC1OC(=O)c2ccccc21 (configuration not stated)  0.49
18. NC(=O)c1ccsc1  0.5
19. NC(=O)c1cccs1  0.52
20. S=P(N1CC1)(N1CC1)N1CC1  0.53
21. NC(N)=Nc1ccccc1  0.53
22. CCOC(=O)C(=O)OCC  0.56
23. CC(=O)c1ccc([C@@H](O)[C@@H](CO)NC(=O)C(Cl)Cl)cc1  0.57
24. CN(C)C(=O)CCc1ccco1  0.62
25. CC1=Nc2cc(N)c(Cl)cc2S(=O)(=O)N1  0.63
26. O=C(O)c1ccco1  0.64
27. NC(=O)COc1ccccc1  0.76
28. CCOP(=O)(OCC)OCC  0.8
29. CCOc1cn[nH]c1  0.8
30. CC1(O)OC(=O)c2ccccc21 (configuration not stated)  0.81
31. COC(=O)C[C@](O)(CCCC(C)(C)O)C(=O)OC1C(OC)=C[C@]23CCCN2CCc2cc4c(cc2[C@H]13)OCO4 (some centres not stated)  0.82
32. OC(O)C(Cl)(Cl)Cl  0.99
33. O=Cc1ccsc1  1.01
34. CCOP(=O)(N=C1SCC(C)S1)OCC (configuration not stated)  1.04
35. C=COCC  1.04
36. O=C1C=CC(=NBr)C=C1  1.12
37. CN(C)c1ccc(C(N)=O)cc1  1.14
38. Nc1cc(OCC(=O)O)ccc1Cl  1.16
39. O=[N+]([O-])c1ccc(OCCn2ccnn2)cc1  1.19
40. CS(=O)(=O)Oc1ccccc1  1.25
41. CCOc1ccc(C(N)=O)cc1  1.3
42. CON(C)C(=O)Nc1cccc(C#N)c1  1.33
43. CCc1ccccc1NC(C)=O  1.33
44. COc1ccccc1OC(C)=O  1.38
45. CCOC(C)OCC  1.49
46. CC1=Nc2ccc(C(F)(F)F)cc2S(=O)(=O)N1  1.51
47. O=[N+]([O-])c1ccc2[nH]c(CCCCCCc3nc4cc([N+](=O)[O-])ccc4[nH]3)nc2c1  1.51
48. CN(C)C(=O)Oc1ccccc1  1.56
49. Cn1nnnc1SCc1ccccc1  1.63
50. CCNC(=O)Nc1ccccc1  1.64
51. COC(=O)c1ccccc1NC(C)=O  1.65
52. CC(=O)Nc1cccc(OC(=O)CNC(=O)c2ccccc2)c1  1.7
53. CCOc1ccccc1OC  1.73
54. COc1ccccc1C=C(C(C)=O)C(C)=O  1.73
55. CN(C)C(=O)/C=C/c1ccccc1  1.73
56. CCOC(=O)C(=O)c1cccs1  1.77
57. COc1cccc(C=C(C(C)=O)C(C)=O)c1  1.79
58. CC1CCC(O)CC1 (configuration not stated)  1.79
59. O=C(NCc1ccccc1)c1ccco1  1.81
60. CCCS  1.81
61. CCC(C)c1cnc(CC(C)C)c(=O)n1O (configuration not stated)  1.81
62. COC(=O)c1cccc(O)c1  1.89
63. O=S1(=O)NC(Cc2ccccc2)=Nc2ccccc21  1.89
64. CC(=O)Oc1ccccc1C  1.93
65. O=[N+]([O-])C=Cc1ccsc1  1.94
66. CN(C)c1ccc(N=C2C=CC(=O)C=C2)cc1  2.02
67. c1cnc2ccc3ncccc3c2c1  2.05
68. O=S1(=O)NC(C2CC3C=CC2C3)=Nc2ccccc21 (configuration not stated)  2.06
69. O=[N+]([O-])CCc1ccccc1  2.08
70. Nc1ccccc1Br  2.11
71. CCCCO[N+](=O)[O-]  2.15
72. O=S1(=O)NC(C2CCCCC2)=Nc2ccccc21  2.2
73. CCOC(=O)C(=Cc1cccc(OC)c1OC)C(C)=O  2.21
74. COc1cccc([N+]([O-])=NC#N)c1  2.24
75. CN(C(=O)COc1ccccc1)c1ccccc1  2.25
76. CCSCC1=Nc2cc(Cl)ccc2S(=O)(=O)N1  2.26
77. CCOCCOC(=O)C(C#N)=C(CC)Nc1ccc(N)cc1  2.27
78. CN(C)c1ccc([N+]([O-])=NC#N)cc1  2.3
79. NC(=O)NN=CCCc1ccccc1  2.32
80. N#Cc1c[nH]c2ccccc12  2.32
81. O=S(=O)(N=[N+]([O-])c1ccccc1)c1ccccc1  2.33
82. CCOC(=O)C(=Cc1cccc(OC)c1)C(C)=O  2.34
83. COC(=O)c1ccccc1Cl  2.38
84. O=C(O)c1ccc(NCc2ccccc2)cc1  2.44
85. CNC(=O)Oc1cccc(Cl)c1Cl  2.48
86. CC1(C)O[C@@H]2C[C@H]3[C@@H]4CCC5=CC(=O)C=C[C@]5(C)[C@@]4(F)[C@@H](O)C[C@]3(C)[C@]2(C(=O)CO)O1  2.53
87. Cc1cccc2cccnc12  2.6
88. c1ccc(CSc2cnn[nH]2)cc1  2.65
89. Oc1ccccc1C(F)(F)F  2.73
90. CC(=O)C(=Cc1ccc(Br)cc1)C(C)=O  2.75
91. CCOC(=O)C(Cc1ccccc1)C(=O)OCC  2.76
92. Cc1c(C2(c3cc(C(C)C)c(O)c(Br)c3C)OS(=O)(=O)c3ccccc32)cc(C(C)C)c(O)c1Br  2.78
93. CCOP(=O)(OCC)Oc1ccc(SC)cc1  2.79
94. CC(C)c1ccccc1OCC(=O)O  2.84
95. CCC(C)NC(=O)/C=C/c1ccccc1 (configuration not stated)  2.85
96. CCOC(=O)/C(=C/c1c(Cl)cccc1Cl)C(C)=O  2.86
97. Nc1cccc2c1C(=O)c1ccccc1C2=O  2.87
98. COc1cc(OCCOC(=O)c2ccccc2)ccc1C=NO  2.94
99. C=CCOc1ccccc1  2.94
100. S=C(Nc1ccccc1)c1ccccc1  3.03
101. CON(C)C(=O)Nc1cccc(OCc2ccccc2)c1  3.11
102. c1ccc(CNc2ccccc2)cc1  3.13
103. CCOC(=O)C(=Cc1ccccc1Cl)C(=O)OCC  3.15
104. C=CCc1ccccc1  3.23
105. O=C(Nc1ccccc1)N(c1ccccc1)c1ccccc1  3.28
106. C/C=C/c1ccccc1  3.35
107. FC(F)(F)C(F)(F)c1ccccc1  3.36
108. COc1ccc2c(=O)c(C)c(C(C)C)oc2c1  3.39
109. Cc1cc(C)cc(OC(=O)CNC(=O)c2ccccc2)c1  3.4
110. CCc1ccc2c(c1)C(=O)c1ccc(NC(C)=O)cc1S2(=O)=O  3.44
111. O=C1c2ccccc2-c2ccccc21  3.58
112. N/N=C1\c2ccccc2C(=O)C1C(=O)C(c1ccccc1)c1ccccc1 (configuration not stated)  3.62
113. COc1cc(C=O)ccc1OCCOC(=O)c1cccc(Cl)c1  3.67
114. CON(C)C(=O)Nc1ccc2c(c1)Cc1ccccc1-2  3.67
115. Brc1cccc(Br)c1  3.75
116. CN(Cc1ccccc1)/N=N/c1ccc(C#N)cc1  3.82
117. CCC(C)(C)C  3.82
118. CCOC(=O)C(=Cc1ccc(Cl)c(Cl)c1)C(C)=O  3.92
119. CCOC(=O)C(=Cc1ccc(Br)cc1)C(=O)OCC  4.02
120. CCC(C)NC(=O)C(=Cc1ccccc1)c1ccccc1 (configuration not stated)  4.05
121. CCC(=O)OCC(=O)[C@@]1(OC(=O)CC)[C@@H](C)C[C@H]2[C@@H]3CCC4=CC(=O)C=C[C@]4(C)[C@@]3(F)[C@@H](O)C[C@@]21C  4.07
122. CCN(CC)c1ccc(/N=N/c2ccc(Br)cn2)c(O)c1  4.23
123. COC(=O)c1cc(Oc2ccc(Cl)cc2Cl)ccc1[N+](=O)[O-]  4.48
124. Cc1cc(CSc2ccccc2Cl)c(O)c(C(=O)O)c1  4.69
125. COC(=O)C(C)Oc1ccc(Oc2ccc(Cl)cc2Cl)cc1 (configuration not stated)  4.8
126. CO[C@H]1/C=C\O[C@@]2(C)Oc3c(C)c(O)c4c(O)c(c(/C=N/OCCCc5ccccc5)c(O)c4c3C2=O)NC(=O)/C(C)=C\C=C/[C@H](C)[C@H](O)[C@@H](C)[C@@H](O)[C@@H](C)[C@H](OC(C)=O)[C@@H]1C  4.83
127. CCCCCCCCOC(=O)c1ccccc1C(=O)OCCCCCCCC  5.22

same assay, conditions: pH 1.0

In order of falling logD:
1. O=C(O)c1ccccc1Oc1ccccc1  3.11
2. O=C(O)c1ccccc1-c1ccccc1  2.89

same assay, conditions: pH 2.0

With `O=C1CC(=O)NC(=O)N1` the logD was -1.41.

same assay, conditions: pH 2.2

`c1ccc(Cc2nn[nH]n2)cc1` showed a logD of 1.36.

same assay, conditions: pH 5.0

For `CC(C)c1ccc(O)c(=O)cc1`, the logD was 1.89.

same assay, conditions: pH 6.4

With `Oc1ccc(Nc2ccccc2)cc1` the logD was 2.82.

same assay, conditions: pH 7.0

In order of falling logD:
1. CCOC(=O)c1ccc([N+](=O)[O-])cc1  2.33
2. COC(=O)c1ccc(C(=O)OC)cc1  2.25
3. COc1ccc(C=O)cc1  1.61
4. O=CNc1cccc([N+](=O)[O-])c1  1.4
5. NC(=O)c1cccnc1N  0.88

same assay, conditions: pH 7.4

In order of rising logD:
1. c1cc2n(n1)CCN2  -0.25
2. CC(=O)OC[C@]12CCC(C)=C[C@H]1O[C@@H]1[C@H](O)[C@@H](OC(C)=O)[C@@]2(C)[C@]12CO2  0.91
3. Cc1c(N(C)C)c(=O)n(-c2ccccc2)c(=O)n1C  1.3
4. CSc1ccc2c(c1)C(c1ccccc1)=NCC(=O)N2  2.92

same assay, conditions: pH 8.0

`COc1cc(S(C)=O)ccc1-c1nc2ccccc2[nH]1` (configuration not stated) gave a logD of 1.17.

same assay, conditions: pH 8.7

`CN1CCC(CN2c3ccccc3Sc3ccccc32)C1` (configuration not stated) showed a logD of 3.87.

same assay, conditions: pH 11.0

For `CNCc1cccnc1`, the logD was 0.39.

same assay, conditions: pH 12.0

In order of falling logD:
1. CCC[C@@H]1C[C@@H](C(=O)N[C@@H]([C@H]2O[C@H](SCC)[C@H](O)[C@@H](O)[C@H]2O)[C@@H](C)O)N(CC)C1  1.91
2. CN(C)/N=N/c1ccccc1CO  1.73
3. CN(CCO)N=Nc1ccccc1  1.71

same assay, conditions: pH 13.0

In order of rising logD:
1. CC1(C)N=C(N)N=C(N)N1c1ccc(F)cc1  0.37
2. NNc1ccc(Br)cc1  1.39
3. COc1cccc(Cc2cnc(N)nc2N)c1OC  1.62
4. COc1ccc(OC)c(Cc2cnc3nc(N)nc(N)c3c2C)c1  2.13
